Experimental data reported in patent publication US20250066371A1, “FLUOROALKOXYALKYLENE-DIHYDROIMIDAZO[5,1-D]TETRAZINONE COMPOUNDS AND RELATED COMPOUNDS AND THEIR USE IN TREATING MEDICAL CONDITIONS” (priority 2023, published 2025).

Assays:
Type in all cases: cell-based
[1] = tested on: LN229 gliobastoma cells MGMT−/MMR−; test: Anti-cancer assay, isogenic LN229 cells, nuclei count (Examples 43, 46); settings: Homo sapiens, LN-229; LN229 MGMT−/MMR−; 120 hours; read-out: MGMT− MMR− Activity
Source text: (§1) Cytotoxicity of the compounds may be measured in short-term cell viability assays against four isogenic LN229 glioblastoma cell lines engineered to be proficient or deficient in MGMT and/or MMR activity by using short hairpin RNAs (shRNAs) targeting MSH2. This approach allows for determination of the relationship between MGMT status, MMR status, and compound activity. LN229 cells are maintained in Dulbecco's Modified Eagle Medium (DMEM) supplemented with 10% fetal bovine serum, 1% Penicillin/Streptomycin, and 0.1% Fungin. DAY 0: Cells are plated into sterile 96-well plates (Corning Costar 96-well) at a concentration of 500 cells/well using a Multichannel pipettor. Then, assay plates are incubated overnight in a 37° C. 5% CO2 incubator. DAY 1: Compounds are prepared as 50 mM stocks in dimethyl sulfoxide (DMSO) and stored protected from light at room temperature (RT) until use. Prior to compound addition, a two-fold serial dilution of compound stock solutions is performed in DMSO from 30 mM to 0.117 mM in a 96-well Master plate. Vehicle control wells contain DMSO. 97 μL of media is added to each well of a new 96-well plate (Daughter plate) and 3 μL of drug solution from Master plate is added to corresponding wells in the Daughter plate resulting in a 3× plate. Three replicate dilution curves of each compound are run on each assay plate. The final concentration of compounds ranges from 300 μM to 1.171 μM (9-point, 2-fold dilution dose response curve), and the final DMSO concentration is 1%.
(§2) Assay plates are incubated for 120 hours at 37° C. in a humidified 5% CO2 incubator. DAY 5: Following incubation, cells are fixed with 4% paraformaldehyde and stained with Hoechst dye for nuclei visualization. Fixation, staining and washing is performed by using a Thermo Scientific Multidrop Combi. Images are acquired on a BioTek Cytation 5 Cell Imaging Multimode Reader and quantified using Cell Profiler image analysis software. Raw cell count data for test compounds are normalized to percent viability relative to the DMSO vehicle control.
(§3) Isogenic LN229 gliobastoma cells were maintained in Dulbecco's Modified Eagle Medium (DMEM) supplemented with 10% fetal bovine serum, 1% Penicillin/Streptomycin, and 0.1% Fungin. DAY 0: Cells were plated into sterile 96-well plates (Corning Costar 96-well) at a concentration of 500 cells/well using a Multichannel pipettor. Then, assay plates were incubated overnight in a 37° C. 5% CO2 incubator. DAY 1: Compounds were prepared as 50 mM stocks in dimethyl sulfoxide (DMSO) and stored protected from light at room temperature (RT) until use. Prior to compound addition, a two-fold serial dilution of compound stock solutions was performed in DMSO from 30 mM to 0.117 mM in a 96-well Master plate. Vehicle control wells contained DMSO. 97 μL of media was added to each well of a new 96-well plate (Daughter plate) and 3 μL of drug solution from Master plate was added to corresponding wells in the Daughter plate resulting in a 3× plate. Three replicate dilution curves of each compound were run on each assay plate. The final concentration of compounds ranged from 300 μM to 1.171 μM (9-point, 2-fold dilution dose response curve), and the final DMSO concentration was 1%.
as §2, with “plates were” for “plates are”, “cells were” for “cells are”, “washing was” for “washing is”, “Images were” for “Images are”, “compounds were” for “compounds are”, “control. […]” for “control.”

[2] = tested on: LN229 gliobastoma cells MGMT−/MMR+; test: as above; settings: Homo sapiens, LN-229; LN229 MGMT−/MMR+; 120 hours; read-out: MGMT− MMR+ Activity
Source text: as §1, §2, §3
as §2, with “plates were” for “plates are”, “cells were” for “cells are”, “washing was” for “washing is”, “Images were” for “Images are”, “compounds were” for “compounds are”, “control. […]” for “control.”

[3] = tested on: LN229 gliobastoma cells MGMT+/MMR+; test: Anti-cancer assay, isogenic LN229 cells, nuclei count (Example 43); settings: Homo sapiens, LN-229; LN229 MGMT+/MMR+; 120 hours; read-out: MGMT+ MMR+ Activity
Source text: as §1, §2, §3
as §2, with “plates were” for “plates are”, “cells were” for “cells are”, “washing was” for “washing is”, “Images were” for “Images are”, “compounds were” for “compounds are”

[4] = tested on: LN229 gliobastoma cells MGMT+/MMR−; test: as above; settings: Homo sapiens, LN-229; LN229 MGMT+/MMR−; 120 hours; read-out: MGMT+ MMR− Activity
Source text: as §1, §2, §3
as §2, with “plates were” for “plates are”, “cells were” for “cells are”, “washing was” for “washing is”, “Images were” for “Images are”, “compounds were” for “compounds are”

[5] = tested on: isogenic LN229 gliobastoma cells; test: Anti-cancer assay against isogenic LN229 cell line set, maximum 200 μM (Example 46); settings: concentration up to 200 μM
Description: as §3, with “The final concentration of compounds ranged from 300 μM to 1.171 μM (9-point, 2-fold dilution dose response curve), and the final DMSO concentration was 1%.” left out
Assay plates were incubated for 120 hours at 37° C. in a humidified 5% CO2 incubator. DAY 5: Following incubation, cells were fixed with 4% paraformaldehyde and stained with Hoechst dye for nuclei visualization. […] Images were acquired on a BioTek Cytation 5 Cell Imaging Multimode Reader and quantified using Cell Profiler image analysis software. […]

IC50 [1] | IC50 [2] | IC50 [3] | IC50 [4] | Compound | anti-cancer activity against LN229 isogenic cell line set [5]
20 to 50 µM | 20 to 50 µM | 20 to 50 µM | 20 to 50 µM | Cc1cnc(-c2ncn3c(=O)n(CCOC(F)(F)F)nnc23)o1 [II-3, 8-(5-Methyloxazol-2-yl)-3-(2-(trifluoromethoxy)ethyl) imidazo[5,1-d][1,2,3,5]tetrazin-4(3H)-one] | –
> 100 µM | > 100 µM | > 100 µM | > 100 µM | NC(=O)c1ncn2c(=O)n(CCOC(F)F)nnc12 [Compound I-44] | –
20 to 50 µM | 20 to 50 µM | 50 to 100 µM | 20 to 50 µM | CN(C)C(=O)c1ncn2c(=O)n(CCOC(F)(F)F)nnc12 [Compound I-4, N,N-Dimethyl-4-oxo-3-(2-(trifluoromethoxy)ethyl)-3,4-dihydroimidazo[5,1-d][1,2,3,5]tetrazine-8-carboxamide] | –
– | – | – | – | COCCn1nnc2c(C(N)=O)ncn2c1=O [Compound A2] | no detectable anti-cancer activity
20 to 50 µM | 20 to 50 µM | 20 to 50 µM | 50 to 100 µM | O=C(c1ncn2c(=O)n(CCOC(F)(F)F)nnc12)N1CCCC1 [Compound I-7, 8-(Pyrrolidine-1-carbonyl)-3-(2-(trifluoromethoxy)ethyl)imidazo[5,1-d][1,2,3,5]tetrazin-4(3H)-one] | –
> 100 µM | > 100 µM | > 100 µM | > 100 µM | NC(=O)c1ncn2c(=O)n(COC(C(F)(F)F)C(F)(F)F)nnc12 [Compound I-23] | –
20 to 50 µM | < 20 µM | < 20 µM | < 20 µM | O=c1n(CCOC(F)(F)F)nnc2c(-c3ccccc3)ncn12 [II-5, 8-Phenyl-3-(2-(trifluoromethoxy)ethyl)imidazo[5,1-d][1,2,3,5]tetrazin-4(3H)-one] | –
